test system: HBV rcDNA; experiment: HepDE19 assay with bDNA quantitation of HBV rcDNA; assay type: cell-based, hepatitis B virus; conditions: HepDE19 assay, inhibition of formation of rcDNA; read-out: DE-19bDNA EC50
In short: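 Compounds, top concentration 25 μM in 8-point duplicate series, were applied to Tet-free HepDE19 cultures for 7 days. Branched-DNA quantitation of HBV rcDNA against untreated wells gave EC50 and EC90 by 4-parameter fit. Viability (CC50) came from ATP luminescence on parallel plates incubated 4 days.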

First: CC(c1c[nH]c(=O)c2ccccc12)N(CCCCO)C(=O)Nc1ccc(F)c(Cl)c1 (single isomer, unassigned) [Compound 149, 3-(3-Chloro-4-fluorophenyl)-1-(4-hydroxybutyl)-1-(1-(1-oxo-1,2-dihydroisoquinolin-4-yl)ethyl)urea]
Second: CC(c1c[nH]c(=O)c2ccccc12)N(CC1CC1)C(=O)Nc1ccc(F)c(Cl)c1 (single isomer, unassigned) [Compound 85, 3-(3-Chloro-4-fluorophenyl)-1-(cyclopropylmethyl)-1-(1-(1-oxo-1,2-dihydroisoquinolin-4-yl)ethyl)urea]
The EC50 of the first is 7.2-fold higher: 3.3 µM for the first, 0.46 µM for the second. The second is the more potent here.

Compared with `CC(c1c[nH]c(=O)c2ccccc12)N(CCNCC(F)(F)F)C(=O)Nc1ccc(F)c(Cl)c1` (single isomer, unassigned) [Compound 163, 3-(3-Chloro-4-fluorophenyl)-1-(1-(1-oxo-1,2-dihydroisoquinolin-4-yl)ethyl)-1-(2-((2,2,2-trifluoroethyl)amino)ethyl)urea], `CCN(C(=O)Nc1ccc(F)c(Cl)c1)C(c1c[nH]c(=O)c2ccccc12)C(F)(F)F` (single isomer, unassigned) [Compound 76, 3-(3-Chloro-4-fluorophenyl)-1-ethyl-1-(2,2,2-trifluoro-1-(1-oxo-1,2-dihydroisoquinolin-4-yl)ethyl)urea] is 3.8-fold lower in EC50: 5.3 µM for the first, 1.4 µM for the second. The second is the more potent here.

Compared with `CCN(C(=O)Nc1ccc(F)c(Cl)c1)C(c1ccccc1)c1cnc(OC)c2ccccc12` (single isomer, unassigned) [Compound 59, 3-(3-Chloro-4-fluorophenyl)-1-ethyl-1-((1-methoxyisoquinolin-4-yl)(phenyl)methyl)urea], `CC(C)CN(C(=O)Nc1ccc(F)c(Cl)c1)C(C)c1c[nH]c(=O)c2cnccc12` (single isomer, unassigned) [Compound 253, 3-(3-Chloro-4-fluorophenyl)-1-isobutyl-1-(1-(1-oxo-1,2-dihydro-2,7-naphthyridin-4-yl)ethyl)urea] is 16-fold lower in EC50: 22 µM for the first, 1.4 µM for the second. The second is the more potent here.

Compared with `Cc1cc(NC(=O)N(C)C(C)c2c(C)[nH]c(=O)c3ccccc23)ccc1F` (single isomer, unassigned) [Compound 237, 3-(4-Fluoro-3-methylphenyl)-1-methyl-1-(1-(3-methyl-1-oxo-1,2-dihydroisoquinolin-4-yl)ethyl)urea], `CC(c1c[nH]c(=O)c2cc(F)ccc12)N(C)C(=O)Nc1ccc(F)c(Cl)c1` (single isomer, unassigned) [Compound 264, 3-(3-Chloro-4-fluorophenyl)-1-(1-(7-fluoro-1-oxo-1,2-dihydroisoquinolin-4-yl)ethyl)-1-methylurea] is 2.1-fold lower in EC50: 0.04 µM for the first, 0.019 µM for the second. The second is the more potent here.

same assay, conditions: HepDE19 assay, inhibition of formation of relaxed circular DNA (rcDNA), bDNA quantitation; read-out: DE-19bDNA EC50

Compared with `CC(c1c[nH]c(=O)c2c(F)c(F)ccc12)N(C)C(=O)NCc1ccc(F)cc1` (single isomer, unassigned) [Compound 491, 1-(1-(7,8-Difluoro-1-oxo-1,2-dihydroisoquinolin-4-yl)ethyl)-3-(4-fluorobenzyl)-1-methylurea], `CCN(C(=O)Nc1ccc(F)c(Cl)c1)C(C)c1c[nH]c(=O)c2c(F)c(F)ccc12` (single isomer, unassigned) [Compound 469, 3-(3-Chloro-4-fluorophenyl)-1-(1-(7,8-difluoro-1-oxo-1,2-dihydroisoquinolin-4-yl)ethyl)-1-ethylurea] is 4200-fold lower in EC50: 21 µM for the first, 0.005 µM for the second.

Compared with `CC(c1c[nH]c(=O)c2c(F)cc(F)cc12)N(CCCO)C(=O)Nc1ccc(F)cc1` (single isomer, unassigned) [Compound 377, 1-(1-(6,8-Difluoro-1-oxo-1,2-dihydroisoquinolin-4-yl)ethyl)-3-(4-fluorophenyl)-1-(3-hydroxypropyl) urea], `CC(C)CN(C(=O)Nc1ccc(F)cc1)C(C)c1c[nH]c(=O)c2cc(F)c(F)cc12` (single isomer, unassigned) [Compound 287, 1-(1-(6,7-Difluoro-1-oxo-1,2-dihydroisoquinolin-4-yl)ethyl)-3-(4-fluorophenyl)-1-isobutylurea] is 7.3-fold lower in EC50: 11 µM for the first, 1.5 µM for the second.

First: CC(c1c[nH]c(=O)c2ccc(F)cc12)N(CC1COC(C)(C)OC1)C(=O)Nc1ccc(F)c(Cl)c1 (single isomer, unassigned) [Compound 283, 3-(3-Chloro-4-fluorophenyl)-1-((2,2-dimethyl-1,3-dioxan-5-yl)methyl)-1-(1-(6-fluoro-1-oxo-1,2-dihydroisoquinolin-4-yl)ethyl)urea]
Second: CC(c1c[nH]c(=O)c2cc(F)c(F)cc12)N(C)C(=O)Nc1ccc(F)c(C(F)F)c1 (single isomer, unassigned) [Compound 502, 1-(1-(6,7-Difluoro-1-oxo-1,2-dihydroisoquinolin-4-yl)ethyl)-3-(3-(difluoromethyl)-4-fluorophenyl)-1-methylurea]
The EC50 of the first is 2.5-fold higher: 0.043 µM for the first, 0.017 µM for the second.

same assay, conditions: Hepatitis B virus, HepDE19, HepDE19 assay, inhibition of formation of rcDNA; read-out: DE-19bDNA EC50

Compound `COc1ncc(C(C)N(C)C(=O)Nc2ccc(F)c(Cl)c2)c2nccnc12` (racemic) [Compound 137, 3-(3-chloro-4-fluorophenyl)-1-(1-(5-methoxypyrido[3,4-b]pyrazin-8-yl)ethyl)-1-methylurea] has an EC50 of 6.1 µM.

same assay, conditions: Hepatitis B virus, HepDE19, HepDE19 assay, inhibition of formation of relaxed circular DNA (rcDNA), bDNA quantitation; read-out: DE-19bDNA EC50

`CNC(=O)N(C)C(C)c1c[nH]c(=O)c2ccccc12` (single isomer, unassigned) [Compound 298, 1,3-Dimethyl-1-(1-(1-oxo-1,2-dihydroisoquinolin-4-yl)ethyl)urea] showed an EC50 of 24 µM.

same assay, conditions: read-out: DE-19bDNA EC50; HepDE19 assay, inhibition of formation of rcDNA

For `CCOCCN(C(=O)Nc1ccc(F)c(Cl)c1)C(C)c1c[nH]c(=O)c2ccccc12` (single isomer, unassigned) [Compound 109, 3-(3-Chloro-4-fluorophenyl)-1-(2-ethoxyethyl)-1-(1-(1-oxo-1,2-dihydroisoquinolin-4-yl)ethyl)urea], the EC50 was 8 µM.
For `CCOCCN(C(=O)Nc1ccc(F)c(Cl)c1)C(C)c1c[nH]c(=O)c2ccccc12` (single isomer, unassigned) [Compound 110, 3-(3-Chloro-4-fluorophenyl)-1-(2-ethoxyethyl)-1-(1-(1-oxo-1,2-dihydroisoquinolin-4-yl)ethyl)urea], the EC50 was 0.17 µM.

same assay, conditions: read-out: DE-19bDNA EC50; HepDE19 assay, inhibition of formation of relaxed circular DNA (rcDNA), bDNA quantitation

With `CCN(C(=O)Nc1ccccc1)C(C)c1c[nH]c(=O)c2cc(F)c(F)cc12` (single isomer, unassigned) [Compound 404, 1-(1-(6,7-Difluoro-1-oxo-1,2-dihydroisoquinolin-4-yl)ethyl)-1-ethyl-3-phenylurea] the EC50 was 18 µM.
